In patent US6841563B1, “Aryloxy propanolamines for improving livestock production” (Eli Lilly and Company, priority 1999, dated 2005):
Marks after values point to notes of the source that are not given here.

Assays:
[1] = Intravenous administration to cattle: serum non-esterified fatty acid (NEFA) and serum urea nitrogen (SUN) levels; format: in vivo
From the text: Intravenous administration of the compounds of the present invention to cattle increases serum non-esterified fatty acids and decreases serum urea. In this Example, angus/angus cross calves, both heifers and steers, weighing approximately 282 pounds (128 kg) initially to 788 pounds (357.8 kg) over the course of these studies, were placed in pens at 5 calves per pen. The cattle were acclimated to the pens for at least 1 week prior to initiating the study.
Calves were fed ad libitum twice daily, (approximately 6-15 pounds (2.7-6.8 kg)/day). During the treatment day, in the A.M. period, the feeding times were staggered to ensure that all animals were fed approximately one hour before the treatments were administered. During the P.M. treatment period, the cattle were fed immediately after receiving the P.M. injection.
After taking a pretreatment (T=O) blood sample from each animal, a 40 μg per kilogram dose of a test compound was administered intravenously in the jugular vein at 6:30 A.M. and 2:30 P.M. Each test compound was administered at a concentration of 1.00-1.25 mg/ml in a treatment vehicle that was a 50/50 mixture of polyethylene glycol 200/water.
A blood sample was taken at fifteen minutes post-treatment (T+15 min). The calves were returned to their respective pens until their next treatment, approximately eight hours later. The next morning at 6:30 A.M. a blood sample was collected from all calves at 24 hours post-treatment (T+24 h). All blood samples were analyzed for the non-esterified fatty acid level (NEFA) and serum urea nitrogen level (SUN). The post-treatment NEFA and SUN levels in each individual animal were compared with the levels found before treatment.

[2] = Weight gain, feed efficiency and carcass characteristics, last 14 days of growing period in broiler chickens; format: in vivo; details: for Dressing Percentage / Fat Pad Weight / Final Weight / Hot Carcass Weights / Pen Feed Intake / Total 14 day Weight Gain / Viscera Weight / Feed Efficiency F/G: day 35-49; for Feed Efficiency F/G: pen feed intake/total pen weight; for increase in weight gain over control / improvement of feed efficiency versus control: 14-day treatment period
From the text: Approximately 1500 Peterson-Hubbard, day-old, male chicks were used in a randomized, complete-block design with 4 treatments (Control, Clenbuterol at 1 PPM, and Compound 6 at 3 and 15 PPM (mg/kg feed)). The testing facility contained 36 pens, divided equally into 6 blocks. Treatments were randomly allotted to pens within each block. Each treatment consisted of 6 pens with 10 birds per pen.
Day-of-age birds were obtained from Pine Manor Hatchery in Goshen, Ind. Approximately 40 birds per pen were set at random upon receipt. On day 30 of the growout period, all birds were weighed and the 15 birds closest to the block mean were selected. These birds were allowed to acclimate until day 35 of age. On that day, all remaining birds were weighed again, and the 10 birds/pen closest to the block mean were chosen for the treatment phase. Birds were provided ad libitum access to feed and water throughout the trial. All birds were fed a 23% crude protein corn-soy ration from day 1 until day 18 of age. The feed was changed to a 20% crude protein corn-soy ration from day 18 to day 49. The treatment feed was mixed using the same 20% crude protein basal ration. Treatments were administered in the feed from day 35 through day 49. Feed consumption was calculated over the entire 14-day treatment period. Birds were weighed at trial completion (day 49), and transported to Purdue University, West Lafayette, Ind. 47907, U.S.A. meat laboratory for slaughter and carcass measurements on day 50. Weights of the hot carcass, fat pad, and viscera were taken on all animals.

With CC(C)(Cc1ccc(Oc2ncccc2C(N)=O)cc1)NC[C@H](O)COc1cccc2[nH]ccc12 [Compound 6, (S)-2-[4-[2-[2-Hydroxy-3-(1H-indol-4-yloxy)propylamino]-2-methylpropyl]-phenoxy]-3-pyridinecarboxamide] the “ΔNEFA 24 Hours” value ([1]; 40 μg per kilogram i.v. twice, T+24 h minus T=0, mean of five animals) was -1.44 µmol/L, the “ΔNEFA 15 Min.” value ([1]; 40 μg per kilogram i.v., T+15 min minus T=0, mean of five animals) was 40.7 µmol/L and the change in vivo at 0.04 mg/kg ([1]; Bos taurus, iv, 40 μg per kilogram i.v. twice, 24 hours post treatment vs baseline T=0, mean of five animals, read-out: Δ% SUN 24 Hours) was -47%. For the same compound, the “lipolytic effects (non-esterified fatty acid levels)” value ([1]; fifteen minutes and twenty-four hours after administration) was “modest lipolytic effects”, the “anabolic effects (change in serum urea nitrogen levels)” value ([1]; twenty-four hours after administration, compared with the corresponding carboxamide regioisomers) was “significantly greater” and the “Dressing Percentage” value ([2]; 3 PPM in feed) was 72.43*. For the same compound, the “Fat Pad Weight” value ([2]; 3 PPM in feed) was 28.67 g, the “Final Weight” value ([2]; 3 PPM in feed) was 3.02 kg and the “Hot Carcass Weights” value ([2]; 3 PPM in feed) was 2175.69* g. The “Pen Feed Intake” value ([2]; 3 PPM in feed) was 25.74 kg, the “Total 14 day Weight Gain” value ([2]; 3 PPM in feed) was 1.30 kg and the “Viscera Weight” value ([2]; 3 PPM in feed) was 283.04 g. For the same compound, the “Feed Efficiency F/G” value ([2]; 3 PPM in feed) was 1.95, the “increase in weight gain over control” value ([2]; 3 PPM, P=0.0987) was 3.17% and the “improvement of feed efficiency versus control” value ([2]; 3 PPM, P=0.2936) was 2.50%. The “increase in hot carcass weights compared to control” value ([2]; 3 PPM, P=0.0174) was 2.50%, the “increase in fat pad weight” value ([2]; 3 PPM, P=0.1069) was 9.68% and the “decrease in viscera weights with respect to control” value ([2]; 3 PPM, P=0.3981) was 1.50%. For the same compound, the “Dressing Percentage” value ([2]; 15 PPM in feed) was 72.63**, the “Fat Pad Weight” value ([2]; 15 PPM in feed) was 27.21 g and the “Final Weight” value ([2]; 15 PPM in feed) was 3.02 kg. The “Hot Carcass Weights” value ([2]; 15 PPM in feed) was 2182.55** g, the “Pen Feed Intake” value ([2]; 15 PPM in feed) was 25.25 kg and the “Total 14 day Weight Gain” value ([2]; 15 PPM in feed) was 1.30 kg. The “Viscera Weight” value ([2]; 15 PPM in feed) was 285.49 g, the “Feed Efficiency F/G” value ([2]; 15 PPM in feed) was 1.94 and the “increase in weight gain over control” value ([2]; 15 PPM, P=0.0756) was 3.17%. The “improvement of feed efficiency versus control” value ([2]; 15 PPM, P=0.1957) was 3.00%, the “increase in hot carcass weights compared to control” value ([2]; 15 PPM, P=0.0078) was 2.82% and the “increase in fat pad weight” value ([2]; 15 PPM, P=0.4814) was 4.09%. For the same compound, the “decrease in viscera weights with respect to control” value ([2]; 15 PPM, P=0.7279) was 0.65%.
